Measurements from paper PMC6541551 (Journal of psychopharmacology (Oxford, England), 2018).
“Also recorded” adds a separate entry of the source. Marks after values point to notes of the source that are not given here.

Legend:
[1] = test system: mice; experiment: Forced-swim test; assay type: in vivo, CD-1 mice; details: vs saline
[2] = Rat pharmacokinetic study of; assay type: in vivo, Sprague-Dawley rats; details: for AUC/dose: plasma
[3] = Mouse pharmacokinetic studies of; assay type: in vivo, CD-1 mice
[4] = test system: mice; experiment: Adverse effects screening; assay type: in vivo, CD-1 mice
[5] = test system: mice; experiment: Learned helplessness test; assay type: in vivo, CD-1 mice; details: vs saline; for Learned helplessness: escape failures in the last 10 trials: p<0.001
[6] = test system: mice; experiment: Open-field test; assay type: in vivo, CD-1 mice; details: vs saline; for Open-field total distance travelled: 15, 50, 150, 450 mg/kg p.o., 60 min after administration
[7] = Screening of; assay type: in vivo, CD-1 mice; details: male mice, three timepoints; for Relative BA (plasma AUClast p.o. / i.p.) / AUClast of (2R,6R)-HNK in plasma / AUC (systemic exposure to (2R,6R)-HNK): 50 mg/kg; for Cmax of (2R,6R)-HNK in plasma: 50 mg/kg of the compound
[8] = Canine pharmacokinetic study of; details: for AUC0→∞ / t1/2 / Cmax: dog plasma
[9] = rats; ref Moaddel et al., 2015; cited from earlier work
[10] = 15 mg/kg i.p., 24-hour re-test, p<0.01
[11] = 15 mg/kg i.p., one hour after administration, p<0.05
[12] = brain, female mice, i.v., 50 mg/kg
[13] = brain, female mice, p.o., 50 mg/kg
[14] = brain, male mice, i.p., 50 mg/kg
[15] = brain, male mice, i.v., 50 mg/kg
[16] = male mice, p.o., 50 mg/kg, cohort p.o. vs i.p.
[17] = male mice, p.o., 10 min, cohort p.o. vs i.v.
[18] = plasma, female mice, i.v., 50 mg/kg
[19] = plasma, female mice, p.o., 50 mg/kg

CNC1(c2ccccc2Cl)CCCCC1=O (racemic) [ketamine, (R,S)-ketamine, reference compound]
Forced-swim test immobility time [1, 10]: reduced immobility time
Forced-swim test immobility time [1, 11]: reduced immobility time

N[C@@]1(c2ccccc2Cl)CCC[C@@H](O)C1=O [(2R,6R)-HNK, (2R,6R)-hydroxynorketamine]
Cl ([2]; male rats, i.v.): 27 mL/min/kg
Vss ([2]; male rats, i.v.): 7.5 L/kg
AUC/dose ([2]; male rats, i.v.): 0.627 µg·kg·h/mL/mg
AUC/dose ([2]; male rats, p.o.): 0.265 µg·kg·h/mL/mg
AUC0→∞ ([2]; rat brain, i.v., 10 mg/kg): 6090 ng·h/mL
t1/2 ([2]; rat brain, i.v., 10 mg/kg): 528 min
Cmax ([2]; rat brain, i.v., 10 mg/kg, measured five minutes after dosing, not actual peak): 9.13^a μg/mL
AUC0→∞ ([2]; rat brain, p.o., 10 mg/kg): 2580 ng·h/mL
Cmax ([2]; rat brain, p.o., 10 mg/kg): 1.52 µg/mL
t1/2 ([2]; rat brain, p.o., 10 mg/kg): 342 min
AUC0→∞ ([2]; rat plasma, i.v., 10 mg/kg): 6270 ng·h/mL
t1/2 ([2]; rat plasma, i.v., 10 mg/kg): 480 min
Cmax ([2]; rat plasma, i.v., 10 mg/kg, measured five minutes after dosing, not actual peak): 9.56^a μg/mL
AUC0→∞ ([2]; rat plasma, p.o., 10 mg/kg): 2650 ng·h/mL
t1/2 ([2]; rat plasma, p.o., 10 mg/kg): 414 min
Cmax ([2]; rat plasma, p.o., single 10 mg/kg (free drug dose), eight timepoints): 1.50 µg/mL
BA (absolute oral) ([2]; rats, 10 mg/kg p.o. vs i.v., plasma AUC0→∞): 42%
Brain to plasma ratio ([2]; rats, both i.v. and p.o., 10 mg/kg): 0.97
time of peak concentration ([2]; rats, plasma and brain, i.v., 10 mg/kg): 0.083 h
AUC0→∞ [3, 12]: 9.53 µg·h/g
t1/2 [3, 12]: 36 min
AUC0→∞ [3, 13]: 6.96 µg·h/g
t1/2 [3, 13]: 42 min
Cmax ([3]; brain, female mice, p.o., single 50 mg/kg): 11.6 µg/g
AUC0→∞ [3, 14]: 4.94 µg·h/g
t1/2 [3, 14]: 24 min
Cmax ([3]; brain, male mice, i.p., single 50 mg/kg): 12.7 µg/g
AUC0→∞ [3, 15]: 8.38 µg·h/g
t1/2 [3, 15]: 30 min
t1/2 ([3]; brain, male mice, p.o., 50 mg/kg): 42 min
AUC0→∞ ([3]; brain, male mice, p.o., 50 mg/kg, range of two cohorts): 2.85−5.19 μg/g×h
Cmax ([3]; brain, male mice, p.o., single 50 mg/kg, range of two cohorts): 6.49−8.60 μg/g
Absolute BA (plasma AUC0→∞ p.o. / i.v.) ([3]; female mice, 50 mg/kg): 52%
maximal levels p.o. lower than i.v. ([3]; female mice, 50 mg/kg, plasma): 1.7 ×
Cl ([3]; female mice, i.v.): 51 mL/min/kg
Vss ([3]; female mice, i.v.): 0.80 L/kg
Brain to plasma ratio ([3]; female mice, i.v., 50 mg/kg): 0.67
AUC/dose ([3]; female mice, i.v., plasma): 0.330 µg·kg·h/mL/mg
Brain to plasma ratio ([3]; female mice, p.o., 50 mg/kg): 0.95
AUC/dose ([3]; female mice, p.o., plasma): 0.170 µg·kg·h/mL/mg
Absolute BA (plasma AUC0→∞ p.o. / i.v.) ([3]; male mice, 50 mg/kg): 46%
maximal brain concentration p.o. as % of i.p. ([3]; male mice, 50 mg/kg): 51%
maximal plasma concentration p.o. as % of i.p. ([3]; male mice, 50 mg/kg): 44.1%
Relative BA (plasma AUC0→∞ p.o. / i.p.) ([3]; male mice, 50 mg/kg, five timepoints): 62%
highest concentrations p.o. lower than i.p. and i.v. ([3]; male mice, 50 mg/kg, plasma and brain): 2–3 fold
brain concentration p.o. as % of i.v. ([3]; male mice, 10 min after dosing, 50 mg/kg): 42%
Brain to plasma ratio ([3]; male mice, i.p., 50 mg/kg): 0.96
Cl ([3]; male mice, i.v.): 74 mL/min/kg
Vss ([3]; male mice, i.v.): 1.7 L/kg
Brain to plasma ratio ([3]; male mice, i.v., 50 mg/kg): 0.86
AUC/dose ([3]; male mice, i.v., plasma, normalized to free drug dose): 0.226 µg·kg·h/mL/mg
maximal brain concentration [3, 16]: 6.49 µg/g
maximal plasma concentration [3, 16]: 5.90 µg/mL
Brain to plasma ratio ([3]; male mice, p.o., 50 mg/kg, range of two cohorts): 0.90−1.16
brain concentration at earliest timepoint [3, 17]: 8.60 µg/g
plasma concentration at earliest timepoint [3, 17]: 5640 ng/mL
Brain to plasma exposure ratio (brain penetrance) ([3]; male mice, p.o., cohort p.o. vs i.p.): 0.90
Brain penetrance (brain to plasma ratio) ([3]; male mice, p.o., cohort p.o. vs i.v.): 1.16
AUC/dose ([3]; male mice, p.o., plasma, normalized to free drug dose): 0.104 µg·kg·h/mL/mg
Brain to plasma ratio ([3]; mice and rats, following oral administration (abstract)): 0.67–1.2
Brain to plasma ratio ([3]; mice, both sexes and all routes of administration): 0.67–1.2
clearance ([3]; mice, i.v., range of sexes): 51 to 74 mL/min/kg
dose-normalized plasma exposure (AUC/dose) ([3]; mice, i.v., range of sexes): 0.226 to 0.330 µg·kg·h/mL/mg
highest plasma concentrations in females higher than in males ([3]; mice, p.o. and i.v., 50 mg/kg): 1.5–2.6 ×
dose-normalized plasma exposure (AUC/dose) ([3]; mice, p.o., range of sexes): 0.104 to 0.170 µg·kg·h/mL/mg
Tmax ([3]; mice, plasma and brain, all routes (i.p., p.o., i.v.), 50 mg/kg): 10 min
half-life (t1/2) ([3]; mice, plasma, range over routes and sexes): 12 to 48 min
absolute oral BA ([3]; mice, range of males and females): 46–52%
AUC0→∞ [3, 18]: 14.2 µg·h/mL
t1/2 [3, 18]: 12 min
AUC0→∞ [3, 19]: 7.33 µg·h/mL
t1/2 [3, 19]: 18 min
Cmax ([3]; plasma, female mice, p.o., single 50 mg/kg): 14.7 µg/mL
t1/2 ([3]; plasma, male mice, i.p., 50 mg/kg): 30 min
AUC0→∞ ([3]; plasma, male mice, i.p., single 50 mg/kg): 5.12 µg·h/mL
Cmax ([3]; plasma, male mice, i.p., single 50 mg/kg (43.1 mg/kg free base), five timepoints): 13.4 µg/mL
t1/2 ([3]; plasma, male mice, i.v., 50 mg/kg): 30 min
AUC0→∞ ([3]; plasma, male mice, i.v., single 50 mg/kg): 9.76 µg·h/mL
t1/2 ([3]; plasma, male mice, p.o., 50 mg/kg): 48 min
AUC0→∞ ([3]; plasma, male mice, p.o., single 50 mg/kg, range of two cohorts): 3.18−4.49 μg/mL×h
Forced-swim test immobility time [1, 10]: reduced immobility time
Forced-swim test immobility time [1, 11]: reduced immobility time
Forced-swim test immobility time ([1]; 15-150 mg/kg p.o., 24 h after treatment, p<0.01): reductions in immobility time
Forced-swim test immobility time ([1]; 15-150 mg/kg p.o., one hour after treatment, p<0.05): reductions in immobility time
Backwards movement, mean score±SEM ([4]; 450 mg/kg p.o., 60 min): 0
Ptosis, mean score±SEM ([4]; 450 mg/kg p.o., 60 min): 0
Sniffing, mean score±SEM ([4]; 450 mg/kg p.o., 60 min): 0
Tail flicking, mean score±SEM ([4]; 450 mg/kg p.o., 60 min): 0
Piloerection, mean score±SEM ([4]; 450 mg/kg p.o., observed over 60 min, n=4/group): 0.25±0.25
Overall adverse effects ([4]; up to a dose of 450 mg/kg p.o.): minimal, if any, adverse effects
Learned helplessness: escape failures in the last 10 trials ([5]; 50 mg/kg i.p., 24 h after treatment): reduced
Learned helplessness: total number of escape failures ([5]; 50 mg/kg i.p., tested 24 h after treatment, p<0.01): reduced the total number of escape failures
Learned helplessness: escape failures in the last 10 trials ([5]; 50 and 150 mg/kg p.o., 24 h after treatment): robust reduction in the number of escape failures; also recorded: effective at reversing helplessness
Learned helplessness: total number of escape failures ([5]; 50 and 150 mg/kg p.o., 24 h after treatment, p<0.05): robust reduction in the number of escape failures; also recorded: effective at reversing helplessness
Open-field total distance travelled [6]: did not alter the total distance travelled at any dose tested
Open-field total distance travelled ([6]; listed as (2R,6R)-hydroxynorketamine): did not alter locomotor activity
Open-field time spent in the center (central 50%) of the arena ([6]; 15-450 mg/kg p.o., 60 min): no significant effect; also recorded: did not alter
Relative BA (plasma AUClast p.o. / i.p.) [7]: 47%
Cmax of (2R,6R)-HNK in plasma ([7]; i.p.): 13400 ng/mL
AUClast of (2R,6R)-HNK in plasma ([7]; i.p.): 5910 ng·h/mL
Cmax of (2R,6R)-HNK in plasma ([7]; p.o.): 5900 ng/mL
AUC (systemic exposure to (2R,6R)-HNK) ([7]; p.o.): 2.80 µg/mL/h
AUClast of (2R,6R)-HNK in plasma ([7]; p.o.): 2800 ng·h/mL
AUC0→∞ ([8]; i.v., 10 mg/kg): 7830 ng·h/mL
t1/2 ([8]; i.v., 10 mg/kg): 96 min
Cmax ([8]; i.v., 10 mg/kg, measured five minutes after dosing, not actual peak): 8.87^a μg/mL
AUC0→∞ ([8]; p.o., 10 mg/kg): 4540 ng·h/mL
t1/2 ([8]; p.o., 10 mg/kg): 90 min
Cmax ([8]; p.o., single 10 mg/kg (free drug dose)): 3.44 µg/mL
BA (absolute oral) ([8]; dogs, 10 mg/kg p.o. vs i.v.): 58%
time of peak plasma concentration ([8]; dogs, i.v., 10 mg/kg, first collection time point): five minutes
Tmax ([8]; dogs, plasma, p.o., 10 mg/kg): 16.8 min
Cl ([8]; male dogs, i.v.): 21 mL/min/kg
Vss ([8]; male dogs, i.v.): 1.2 L/kg
AUC/dose ([8]; male dogs, i.v., plasma): 0.783 µg·kg·h/mL/mg
AUC/dose ([8]; male dogs, p.o., plasma): 0.454 µg·kg·h/mL/mg

N[C@]1(c2ccccc2Cl)CCC[C@H](O)C1=O [(2S,6S)-HNK, (2S,6S)-hydroxynorketamine]
oral BA [9]: approximately 46%

CC(=O)O[C@@H]1CCC[C@@](N)(c2ccccc2Cl)C1=O [Compound 2a]
Relative BA (plasma AUClast p.o. / i.p.) [7]: 28%
AUC (systemic exposure to (2R,6R)-HNK) ([7]; p.o.): 2.26 µg/mL/h
